Reference: US20260294863A1, “METHOD OF TREATING FIBROTIC-RELATED CONDITION” (YISSUM RESEARCH DEVELOPMENT COMPANY OF THE HEBREW …, priority 2023, published 2026)

What was measured:
[1] = Body weight in bleomycin-induced skin sclerosis; type: in vivo, C57BL/6 mice; conditions: 10 mg/kg/day in drinking fluid
Method: (§1) Male C57BL/6 mice aged 8 weeks were housed under pathogen-free conditions at a controlled temperature of 22-24° C., humidity and alternating 12-h light/dark cycles and provided with food and water ad libitum. Skin sclerosis was induced as described by Ravanetti et al, (2020). A small incision was made in the skin at the back caudal to the scapulae and subcutaneous pocket was created into which an Alzet micro-osmotic pump was implanted, and the incision closed with two stiches and a surgical clip. The pumps contained bleomycin, (delivered at the rate of 60 U/kg body weight) or saline (control) and were removed 10 days after implantation. The mice were monitored daily until they recovered completely and weighed twice weekly from the beginning of the experiment.
(§2) Ladostigil (10 mg/kg/day) was administered in the drinking fluid to 10 mice, housed 2/cage, from 3 days before bleomycin pump installation until the end of the experiment. The fluid intake of the mice was measured daily. The dose of ladostigil was adjusted accordingly. Bleomycin alone, (10 mice) and saline controls (6 mice) received regular drinking fluid.

[2] = test system: BzATP/LPS-activated microglia; assay: Gene expression (RNA-seq) in BzATP/LPS-activated microglia; type: cell-based, Balb/C mice; conditions: 1×10^−10 M, 8 hrs after BzATP/LPS
Method: (§3) Experiments were performed on primary microglial cells isolated from brains of neonatal Balb/C mice as previously described (Reichert and Rotshenker, 2003). The brains were stripped of their meninges and enzymatically dissociated. Cells were plated on Poly-L-lysine coated flasks for one week, re-plated for 1- to 2-hr on bacteriological plates and non-adherent cells were washed away. Microglia were propagated by incubation in 20% of medium, conditioned by the L-cell line that produces mouse-CSF. They were identified by morphology and positive immune-reactivity to P2y12, F4/80, complement receptor-3 and Galectin-3/MAC-2 (Reichert and Rotshenker 2003; Gitik et al. 2011).
Ladostigil (1×10^−10 M) was added to microglia for 2 hrs before BzATP/LPS. Cells were harvested before and 8 hr after addition of BzATP/LPS. Total RNA was extracted using the RNeasy Plus Universal Mini Kit (QIAGEN) according to the manufacturer's protocol. Total RNA samples (1 μg RNA) were enriched for mRNAs by pull-down of poly A. Libraries were prepared using the KAPA Stranded mRNA-Seq Kit according to the manufacturer's protocol and sequenced using Illumina NextSeq 500 to generate 85 bp single-end reads (total 25-30 million reads per sample) as described in Zohar et al. (2021).
Next-generation sequencing data underwent quality control using FastQC. They were then preprocessed using Trimmomatic (Bolger et al. 2014) and aligned to the reference genome GRCm38 with the STAR aligner (Dobin et al. 2013) using default parameters. Genomic loci were annotated using GENCODE version M25 (Frankish et al. 2019). Genes with low expression were filtered out of the dataset by setting a threshold of a minimum of 2 counts-per-million in three samples.
Pair-wise differential analyses were performed between all […] BzATP/LPS time points and genes with an FDR <0.01 were considered.

[3] = test system: EGR1; assay: Nuclear levels of EGR1 in microglia activated by BzATP and LPS; type: cell-based, Balb/C mice
Method: as §3
The addition of BzATP/LPS to microglia increased cytoplasmic levels of TNFαIP3 protein and nuclear ERGR1 protein.

[4] = test system: NFκB; conditions: LPS; cited from earlier work
[5] = test system: IL1β; assay: Secretion of IL1β from BzATP/LPS-activated microglia (ELISA); type: cell-based, Balb/C mice
Method: as §3
Cytokines were measured as previously described (Shamash et al. 2002) using ELISA Max deluxe set (Biolegend, CA, USA) for secreted TNFα and IL-6 proteins and ELISA DuoSet (R&D systems, UK) for secreted and cell associated IL-1β, according to manufacturer's instructions.
The effect of ladostigil at concentrations of 1×10^−13 M to 1×10^−9 M on the secretion of cytokine proteins was assessed by adding it to microglia for 2 hr before LPS (0.75 μg/ml) and BzATP (400 μM). Other microglia were treated similarly with the steroid, budesonide as a reference standard at concentrations of 1× 10^−13 to 1× 10^−11 M. Measurements of cytokine secretion were performed 8 hrs after addition of LPS and BzATP. Since the levels of secreted IL-1β were still low, samples were concentrated 2- to 4-fold by an Amicon ultra-centrifugal filter device (Merck-Millipore, Ireland). ELISA was used to quantify the levels of cytokine proteins. Protein content in the microglia lysate was measured by Bradford and levels of cytokines were calculated and presented as pg/μg of microglial protein.

[6] = test system: TGFβ; assay: TGFβ-containing cells in skin, bleomycin-induced skin sclerosis; type: in vivo, C57BL/6 mice; conditions: ladostigil 10 mg/kg/day + bleomycin; p<0.05
Method: as §1, §2

[7] = test system: cells (oxidative stress induced by Sin 1); conditions: cited from earlier work

Which results are given for `C#CCN[C@@H]1CCc2ccc(OC(=O)N(C)CC)cc21` [Ladostigil, 6-(N-ethyl, N-methylcarbamyloxy)-N propargyl-1 (R)-aminoindan hemitartrate]?
weight gain compared with bleomycin ([1]; days 18, 21, 24 and 27): greater than in those on bleomycin; increase in body weight ([1]; days 24-27, skin sclerosis): 15%; Egr1 gene expression [2]: downregulated; Egr2 gene expression [2]: downregulated; Mmp12 gene expression [2]: downregulated; TNFαIP3 (A20) gene expression [2]: up-regulated; Timp1 gene expression [2]: downregulated; number of genes significantly altered in expression [2]: 25 genes; Mean percent of nuclei with positive EGR1 protein immunoreactivity ± SEM ([3]; BzATP/LPS, ladostigil 1×10^−10 M, Medium 19.0 ± 4.2): 56.0 ± 3.9%; change in nuclear EGR1 protein ([3]; microglia, ladostigil 1×10^−10 M on top of BzATP/LPS): decreased; nuclear translocation of NFκB [4]: decrease in the nuclear translocation of NFκB; Emax ([5]; Mus musculus, Microglia, 8 h, 1×10^−11-1×10^−9 M, read-out: maximal reduction of IL1β): ~50%; minimal effective concentration ([5]; Mus musculus, microglia, BzATP/LPS, medium containing BSA, 8 hrs, read-out: lowest concentration that significantly decreased IL1β secretion): 1e-06 µM; reduction of IL1β release ([5]; all concentrations tested, added 2 hrs before BzATP and LPS, 0.1% BSA, p<0.01): reduced the 3 cytokines significantly; reduction of IL1β compared with reduction of TNFα ([5]; ladostigil 1×10^−9 M, budesonide 1×10^−11 M): greater than that of TNFα; number of TGFβ-containing cells in the skin [6]: significantly reduced the number of TGFβ-containing cells; concentration preventing oxidative stress, fold lower than those inhibiting AChE or MAO [7]: 20 -fold; oxidative stress in cells / fall in mitochondrial potential ([7]; induced by Sin 1): prevented oxidative stress in cells
